Assay results taken from ChEMBL document CHEMBL5370552, “Rational design and evaluation of 2-((pyrrol-2-yl)methylene)thiophen-4-ones as RNase L inhibitors” (Eur J Med Chem, 2023).
pIC50: −log10 of the molar value. The source made the active and inactive calls. No cut-off for these calls is given here.

Columns and labels:
[1] = biological target: T1, 2-5A-dependent ribonuclease (Homo sapiens) (UniProt Q05823); experiment: Inhibition of his6-tagged full length human RNase L expressed in insect cells at 250 uM incubated for 30 min by FRET assay relative to control
T1 sequence (whole entry): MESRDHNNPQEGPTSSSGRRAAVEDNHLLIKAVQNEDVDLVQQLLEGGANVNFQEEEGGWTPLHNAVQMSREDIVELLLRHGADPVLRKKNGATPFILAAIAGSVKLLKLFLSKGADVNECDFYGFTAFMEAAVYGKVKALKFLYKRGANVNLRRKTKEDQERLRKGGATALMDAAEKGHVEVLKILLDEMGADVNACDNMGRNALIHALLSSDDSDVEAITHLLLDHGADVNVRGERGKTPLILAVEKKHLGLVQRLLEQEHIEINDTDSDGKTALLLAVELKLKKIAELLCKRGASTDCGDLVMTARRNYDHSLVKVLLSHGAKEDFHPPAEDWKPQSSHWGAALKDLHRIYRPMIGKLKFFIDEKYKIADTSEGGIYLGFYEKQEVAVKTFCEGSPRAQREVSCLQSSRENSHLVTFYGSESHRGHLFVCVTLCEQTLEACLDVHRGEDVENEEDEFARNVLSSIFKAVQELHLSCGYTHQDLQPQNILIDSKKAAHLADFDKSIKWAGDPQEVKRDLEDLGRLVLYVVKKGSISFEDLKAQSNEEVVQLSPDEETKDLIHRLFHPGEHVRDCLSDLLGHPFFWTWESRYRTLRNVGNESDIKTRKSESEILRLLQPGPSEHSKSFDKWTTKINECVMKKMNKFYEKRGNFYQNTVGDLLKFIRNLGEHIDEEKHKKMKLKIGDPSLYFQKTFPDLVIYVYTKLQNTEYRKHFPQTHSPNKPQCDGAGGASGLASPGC

[2] = biological target: T2, 2-5A-dependent ribonuclease (Homo sapiens, UniProt Q05823); experiment: Inhibition of his6-tagged full length human RNase L expressed in insect cells incubated for 30 min by FRET assay
T2 sequence (Q05823 whole entry): T1 sequence (whole entry)

[3] = biological target: T1, 2-5A-dependent ribonuclease (Homo sapiens); experiment: Inhibition of his6-tagged full length human RNase L expressed in insect cells at 130 uM incubated for 30 min by FRET assay relative to control
[4] = biological target: T1, 2-5A-dependent ribonuclease (Homo sapiens); experiment: Inhibition of RNase L in human HeLa cells assessed as ribosomal RNA degradation at 10 uM incubated for 4 hrs by NanoDrop spectrophotometry analysis relative to control; type: cell-based
[5] = biological target: T1, 2-5A-dependent ribonuclease (Homo sapiens); experiment: Inhibition of his6-tagged full length human RNase L expressed in insect cells incubated for 30 mins in presence of 2-5A and ATP by gel based RNA cleavage assay; details: dose 250.0 µM
[6] = biological target: T1, 2-5A-dependent ribonuclease (Homo sapiens); experiment: Binding affinity to his6-tagged full length human RNase L expressed in insect cells by biolayer interferometry analysis
[7] = biological target: T1, 2-5A-dependent ribonuclease (Homo sapiens); experiment: Inhibition of his6-tagged full length human RNase L expressed in insect cells at 250 uM incubated for 30 mins in presence of 2-5A and ATP by gel based RNA cleavage assay relative to control
[8] = biological target: T1, 2-5A-dependent ribonuclease (Homo sapiens); experiment: Inhibition of RNase L in human HeLa cells assessed as ribosomal RNA degradation at 2 uM incubated for 4 hrs by NanoDrop spectrophotometry analysis; type: cell-based
[9] = biological target: T1, 2-5A-dependent ribonuclease (Homo sapiens); experiment: Potency index, ratio of sunitinib IC50 to test compound IC50 for inhibition of his6-tagged full length human RNase L expressed in insect cells incubated for 30 min by FRET assay

SMILES	inhibition [1] [%]	further results
CCN(CC)CCNC(=O)c1c(C)[nH]c(/C=C2/SC(Nc3ccccc3)=C(C(=O)NC)C2=O)c1C	67	
CCN(CC)CCNC(=O)c1c(C)[nH]c(/C=C2/OC(Nc3cccc(F)c3)=C(C(=O)NCCN)C2=O)c1C	97	pIC50 [2]: 4.38
CCOC(=O)C1=C(Nc2ccc(OC)c(OC)c2)S/C(=C/c2[nH]c(C)c(C(=O)NCCN(CC)CC)c2C)C1=O	79	
CCOC(=O)C1=C(Nc2ccccc2Br)S/C(=C/c2[nH]c(C)c(C(=O)NCCN(CC)CC)c2C)C1=O	85	
CCN(CC)CCNC(=O)c1c(C)[nH]c(/C=C2/SC(Nc3cccc(OC)c3)=C(C(=O)NC)C2=O)c1C	99	
CCOC(=O)C1=C(Nc2ccc(F)cc2)S/C(=C/c2[nH]c(C)c(C(=O)NCCN(CC)CC)c2C)C1=O	80	
CCN(CC)CCNC(=O)c1c(C)[nH]c(/C=C2/SC(Nc3cccc(OC)c3)=C(C(=O)NCCNC(=O)OC(C)(C)C)C2=O)c1C		inhibition [3]: 49%
CCN(CC)CCNC(=O)c1c(C)[nH]c(/C=C2/SC(Nc3cccc(F)c3)=C(C(=O)NCc3ccccc3)C2=O)c1C	99	
CCN(CC)CCNC(=O)c1c(C)[nH]c(/C=C2/SC(Nc3cccc(Cl)c3)=C(C(=O)NC)C2=O)c1C		inhibition [3]: 88%
CCN(CC)CCNC(=O)c1c(C)[nH]c(/C=C2/SC(Nc3cccc(F)c3)=C(C(=O)NCCNC(=O)OC(C)(C)C)C2=O)c1C	100	
CCN(CC)CCNC(=O)c1c(C)[nH]c(/C=C2/SC(Nc3cccc(F)c3)=C(C(=O)NCCN)C2=O)c1C	102	pIC50 [2]: 4.80; inhibition [4]: 100%; inhibition [5]: Dose-Dependent Effect; Activity [6]: Active; inhibition [7]: 100%; inhibition [8]: Active
CCOC(=O)C1=C(Nc2cccc(OC)c2)S/C(=C/c2[nH]c(C)c(C(=O)NCCN(CC)CC)c2C)C1=O	78	
CCOC(=O)C1=C(Nc2ccc(Br)cc2)S/C(=C/c2[nH]c(C)c(C(=O)NCCN(CC)CC)c2C)C1=O	90	
CCN(CC)CCNC(=O)c1c(C)[nH]c(/C=C2/OC(Nc3ccccc3)=C(C(=O)NC)C2=O)c1C	74	
CCN(CC)CCNC(=O)c1c(C)[nH]c(/C=C2/OC(Nc3cccc(F)c3)=C(C(=O)NCCNC(=O)OC(C)(C)C)C2=O)c1C	84	
CCOC(=O)C1=C(Nc2ccc(OC)cc2)S/C(=C/c2[nH]c(C)c(C(=O)NCCN(CC)CC)c2C)C1=O	70	
CCN(CC)CCNC(=O)c1c(C)[nH]c(/C=C2/OC(Nc3ccccc3)=C(C(=O)NCCN)C2=O)c1C	93	
CCN(CC)CCNC(=O)c1c(C)[nH]c(/C=C2/SC(Nc3cccc(OC)c3)=C(C(=O)NCCN)C2=O)c1C	101	Ratio IC50 [9]: 30; pIC50 [2]: 4.89; inhibition [5]: Dose-Dependent Effect; Activity [6]: Active; inhibition [7]: 100%

SMILES	inhibition [1] [%]	further results
CCOC(=O)C1=C(Nc2cccc([N+](=O)[O-])c2)S/C(=C/c2[nH]c(C)c(C(=O)NCCN(CC)CC)c2C)C1=O	76	
CCN(CC)CCNC(=O)c1c(C)[nH]c(/C=C2/SC(Nc3cccc([N+](=O)[O-])c3)=C(C(=O)NC)C2=O)c1C		inhibition [3]: 60%
CCN(CC)CCNC(=O)c1c(C)[nH]c(/C=C2/OC(Nc3ccccc3)=C(C(=O)NCCNC(=O)OC(C)(C)C)C2=O)c1C	79	
CCOC(=O)C1=C(Nc2ccc(CC)cc2)S/C(=C/c2[nH]c(C)c(C(=O)NCCN(CC)CC)c2C)C1=O	83	
CCN(CC)CCNC(=O)c1c(C)[nH]c(/C=C2/SC(Nc3cccc(Cl)c3)=C(C(=O)NCCNC(=O)OC(C)(C)C)C2=O)c1C	96	
CCN(CC)CCNC(=O)c1c(C)[nH]c(/C=C2/SC(Nc3ccccc3)=C(C(=O)NCCNC(=O)OC(C)(C)C)C2=O)c1C	75	
CCN(CC)CCNC(=O)c1c(C)[nH]c(/C=C2/SC(Nc3cccc(C(F)(F)F)c3)=C(C(=O)NC)C2=O)c1C		inhibition [3]: 97%
CCOC(=O)C1=C(Nc2ccc(C(F)(F)F)cc2)S/C(=C/c2[nH]c(C)c(C(=O)NCCN(CC)CC)c2C)C1=O	90	
CCN(CC)CCNC(=O)c1c(C)[nH]c(/C=C2\C(=O)Nc3ccc(F)cc32)c1C	83	
CCOC(=O)C1=C(Nc2ccc([N+](=O)[O-])cc2)S/C(=C/c2[nH]c(C)c(C(=O)NCCN(CC)CC)c2C)C1=O	67	
CCN(CC)CCNC(=O)c1c(C)[nH]c(/C=C2/SC(Nc3cccc(F)c3)=C(C(=O)NC)C2=O)c1C	58	
CCOC(=O)C1=C(Nc2ccc(C)cc2)S/C(=C/c2[nH]c(C)c(C(=O)NCCN(CC)CC)c2C)C1=O	83	
CCOC(=O)C1=C(Nc2cccc(F)c2)S/C(=C/c2[nH]c(C)c(C(=O)NCCN(CC)CC)c2C)C1=O	76	
CCN(CC)CCNC(=O)c1c(C)[nH]c(/C=C2/SC(Nc3ccccc3)=C(C(=O)NCCN)C2=O)c1C	101	pIC50 [2]: 4.55
CCN(CC)CCNC(=O)c1c(C)[nH]c(/C=C2/SC(Nc3cccc(Cl)c3)=C(C(=O)NCCN)C2=O)c1C	101	pIC50 [2]: 4.92; inhibition [5]: Dose-Dependent Effect; Activity [6]: Active; inhibition [7]: 100%
CCOC(=O)C1=C(Nc2ccccc2)S/C(=C/c2[nH]c(C)c(C(=O)NCCN(CC)CC)c2C)C1=O	78	
CCN(CC)CCNC(=O)c1c(C)[nH]c(/C=C2/SC(Nc3ccc(F)cc3)=C(C(=O)NC)C2=O)c1C	< 5	
